Results from BindingDB's records for patent US20250051327 (Exscientia AI, 2025).

Molecular target: T1, Mucosa-associated lymphoid tissue lymphoma translocation protein 1 (Homo sapiens, UniProt Q9UDY8)
T1 sequence (Q9UDY8 whole entry): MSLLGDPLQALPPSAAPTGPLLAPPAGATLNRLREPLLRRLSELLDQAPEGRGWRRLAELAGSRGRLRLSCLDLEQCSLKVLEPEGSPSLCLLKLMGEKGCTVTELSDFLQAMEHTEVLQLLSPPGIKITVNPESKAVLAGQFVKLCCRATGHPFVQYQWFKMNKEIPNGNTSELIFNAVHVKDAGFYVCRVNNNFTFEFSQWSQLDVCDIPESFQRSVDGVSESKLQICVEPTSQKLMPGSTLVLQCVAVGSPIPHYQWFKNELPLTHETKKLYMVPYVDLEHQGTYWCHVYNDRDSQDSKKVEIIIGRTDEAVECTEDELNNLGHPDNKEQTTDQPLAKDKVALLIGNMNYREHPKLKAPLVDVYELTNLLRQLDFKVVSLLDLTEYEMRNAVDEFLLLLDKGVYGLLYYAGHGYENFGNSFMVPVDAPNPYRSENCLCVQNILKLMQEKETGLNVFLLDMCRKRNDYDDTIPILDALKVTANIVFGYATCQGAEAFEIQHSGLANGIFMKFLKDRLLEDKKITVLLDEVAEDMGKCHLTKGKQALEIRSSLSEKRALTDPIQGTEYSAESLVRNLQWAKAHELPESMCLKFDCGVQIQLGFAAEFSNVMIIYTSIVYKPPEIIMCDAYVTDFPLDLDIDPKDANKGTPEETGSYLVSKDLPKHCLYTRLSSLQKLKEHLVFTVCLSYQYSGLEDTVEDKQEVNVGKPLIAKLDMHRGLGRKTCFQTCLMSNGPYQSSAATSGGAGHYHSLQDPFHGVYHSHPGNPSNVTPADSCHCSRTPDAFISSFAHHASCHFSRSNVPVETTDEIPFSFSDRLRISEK
Assay: MALT-1 Inhibition Assay
Protocol: MALT-1 paracaspase activity was measured using the fluorogenic substrate Ac-LRSR-Rh110-DP (purchased from Biosantan GmbH). Proteolytic cleavage of the peptide—rhodamine conjugate results in an increase of rhodamine fluorescence which is inhibited by test compounds. Test compounds were diluted in DMSO in a series of 10 semi-log step doses, 15 nL of each compound dose were dispensed in 384 well polypropylene plates (HiBase non-binding, Greiner Bio-One cat #784900). All other assay components were diluted to appropriate working concentrations in assay buffer composed of: 200 mM Tris-HCl (pH 7.5; Sigma-Aldrich cat #T2663-1L), 0.1 mM EGTA (Sigma-Aldrich cat #E3889-10G), 0.05% CHAPS—Sigma-Aldrich cat #C9426-1G), 1 mM TCEP (Sigma-Aldrich cat #646547-10×1 mL), 0.8 M sodium citrate (Sigma-Aldrich cat #S1804-500G). Recombinant human MALT-1 (amino acids 340-824, accession NP_006776.1) was added to compound doses and equilibrated for 40 minutes at rt. The reaction was initiated by addition of substrate. Final concentrations of MALT-1 and substrate were 3 nM and 10 μM respectively. Reactions were incubated in the dark for 60 minutes at 25° C. Fluorescence was measured in a PHERAstar FSX plate reader (BMG LABTECH) with optical setup for excitation at 485 nm and emission at 520 nm, focal height of 11.8 mm, 20 flashes, gain 300. Percent inhibition values were calculated from relative fluorescence units at different doses and fitted to a 4-parameter logistic curve to determine IC50 values.

Structure (SMILES) | IC50 [µM]
C[C@H]1CCN(c2ccc([C@H](N(C)C(=O)[C@H]3CC[S@](=N)(=O)CC3)C(F)(F)F)cc2)c2cnc3cc(F)nn3c21 (relative stereo) [US20250051327, Reference CPD0074553] | 0.039
C[C@H]1CCN(c2ccc([C@H](N(C)C(=O)[C@H]3CC[S@@](=N)(=O)CC3)C(F)(F)F)cc2)c2cnc3cc(F)nn3c21 (relative stereo) [US20250051327, Reference CPD0074554] | 0.044
CO[C@@H](C)c1c(Nc2ccc([C@H](N(C)C(=O)[C@H]3CNC(=O)C3)C(F)(F)F)cc2)cnn2cc(Cl)nc12 (relative stereo) [US20250051327, Reference CPD0082467] | 0.042
CO[C@@H](C)c1c(Nc2ccc([C@H](N(C)C(=O)[C@H]3CCC(=O)NC3)C(F)(F)F)cc2)cnn2cc(Cl)nc12 (relative stereo) [US20250051327, Reference CPD0082471] | 0.037
CO[C@@H](C)c1c(Nc2ccc([C@H](N(C)C(=O)[C@@H]3CCC(=O)NC3)C(F)(F)F)cc2)cnn2cc(Cl)nc12 (relative stereo) [US20250051327, Reference CPD0082472] | 0.041
CO[C@@H](C)c1c(Nc2ccc([C@H](N(C)C(=O)[C@H]3CCN(C(=O)CO)C3)C(F)(F)F)cc2)cnn2cc(Cl)nc12 (relative stereo) [US20250051327, Reference CPD0084139] | 0.052
CO[C@@H](C)c1c(Nc2ccc([C@H](N(C)C(=O)[C@@H]3CCN(C(=O)CO)C3)C(F)(F)F)cc2)cnn2cc(Cl)nc12 (relative stereo) [US20250051327, Reference CPD0084140] | 0.045
CN(C(=O)C1CCS(=O)(=O)CC1)[C@@H](c1ccc(N2CCCc3c2cnc2cc(Cl)nn32)nc1)C(F)(F)F [US20250051327, Reference CPD0019212] | 0.313
CN(C(=O)C1CCS(=O)(=O)CC1)[C@@H](c1ccc(N2CCC3(CC3)c3c2cnc2cc(Cl)nn32)nc1)C(F)(F)F [US20250051327, Reference CPD0021660] | 0.087
CN(C(=O)[C@@H]1CCN(C(=O)CC#N)C1)[C@@H](c1ccc(N2CCCc3c2cnc2cc(Cl)nn32)cc1)C(F)(F)F [US20250051327, Reference CPD0073190] | 0.114
CN(C(=O)[C@H]1CCN(C(=O)CC#N)C1)[C@@H](c1ccc(N2CCCc3c2cnc2cc(Cl)nn32)cc1)C(F)(F)F [US20250051327, Reference CPD0073191] | 0.096
CN(C(=O)[C@H]1C[C@@H]([S@@+](C)(=N)[O-])C1)[C@@H](c1ccc(N2CCCc3c2cnc2cc(Cl)nn32)cc1)C(F)(F)F [US20250051327, Reference CPD0073223] | 0.057
CN(C(=O)[C@H]1CC[S@](=N)(=O)CC1)[C@@H](c1ccc(N2CC(C)(C)Cc3c2cnc2cc(Cl)nn32)cc1)C(F)(F)F [US20250051327, Reference CPD0073497] | 0.052
CN(C(=O)[C@H]1CC[S@@](=N)(=O)CC1)[C@@H](c1ccc(N2CC(C)(C)Cc3c2cnc2cc(Cl)nn32)cc1)C(F)(F)F [US20250051327, Reference CPD0073498] | 0.053
O=C(CC1CS(=O)(=O)C1)N[C@@H](c1ccc(N2CCCc3c2cnc2cc(Cl)nn32)cc1)C(F)(F)F [US20250051327, Reference CPD0073535] | 0.403

Further lines, results first:

IC50 [µM] | Structure (SMILES)
0.139 | COc1ccc2ncc(Nc3ccc([C@H](N(C)C(=O)C4CCS(=O)(=O)CC4)C(F)(F)F)cn3)c([C@@H](C)OC)c2n1 (relative stereo) [US20250051327, Reference CPD0019006]
0.065 | COc1ccc2ncc(Nc3ccc([C@H](N(C)C(=O)C4CCS(=O)(=O)CC4)C(F)(F)F)cc3)c([C@H](C)OC)c2n1 (relative stereo) [US20250051327, Reference CPD0019170]
0.196 | COc1ccc2ncc(Nc3ccc([C@H](N(C)C(=O)C4CCS(=O)(=O)CC4)C(F)(F)F)cc3)c([C@@H](C)OC)c2n1 (relative stereo) [US20250051327, Reference CPD0019171]
0.075 | COc1ccc2ncc(Nc3ccc([C@H](N(C)C(=O)[C@H]4CC[S@@+]([O-])CC4)C(F)(F)F)cc3)c([C@H](C)OC)c2n1 (relative stereo) [US20250051327, Reference CPD0072935]
0.068 | COc1ccc2ncc(Nc3ccc([C@H](N(C)C(=O)[C@H]4CC[S@+]([O-])CC4)C(F)(F)F)cc3)c([C@H](C)OC)c2n1 (relative stereo) [US20250051327, Reference CPD0072936]
0.107 | COc1ccc2ncc(Nc3ccc([C@H](N(C)C(=O)C4CCS(=O)(=O)CC4)C(F)(F)F)cc3)c([C@H]3CCCO3)c2n1 (relative stereo) [US20250051327, Reference CPD0074043]
0.218 | COc1ccc2ncc(Nc3ccc([C@H](N(C)C(=O)C4CCS(=O)(=O)CC4)C(F)(F)F)cc3)c([C@@H]3CCCO3)c2n1 (relative stereo) [US20250051327, Reference CPD0074044]
0.081 | COc1ccc2ncc(Nc3ccc([C@H](N(C)C(=O)[C@@H]4CNC(=O)C4)C(F)(F)F)cc3)c([C@H](C)OC)c2n1 (relative stereo) [US20250051327, Reference CPD0074550]
0.153 | COc1ccc2ncc(Nc3ccc([C@H](N(C)C(=O)C4CCN(C(C)=O)CC4)C(F)(F)F)cc3)c([C@H](C)OC)c2n1 (relative stereo) [US20250051327, Reference CPD0074559]
0.079 | COc1ccc2ncc(Nc3ccc([C@H](N(C)C(=O)[C@H]4CNC(=O)C4)C(F)(F)F)cc3)c([C@H](C)OC)c2n1 (relative stereo) [US20250051327, Reference CPD0074562]
0.047 | COc1ccc2ncc(Nc3ccc([C@H](N(C)C(=O)[C@@H]4CCC(=O)N4)C(F)(F)F)cc3)c([C@H](C)OC)c2n1 (relative stereo) [US20250051327, Reference CPD0075580]
0.037 | COc1ccc2ncc(Nc3ccc([C@H](N(C)C(=O)[C@H]4CCC(=O)N4)C(F)(F)F)cc3)c([C@H](C)OC)c2n1 (relative stereo) [US20250051327, Reference CPD0075581]
0.041 | COc1ccc2ncc(Nc3ccc([C@H](N(C)C(=O)[C@H]4CNC(=O)C4)C(F)(F)F)cc3)c([C@@H]3CCOC3)c2n1 (relative stereo) [US20250051327, Reference CPD0082477]
0.072 | COc1ccc2ncc(Nc3ccc([C@H](N(C)C(=O)[C@H]4CNC(=O)C4)C(F)(F)F)cc3)c([C@H]3CCOC3)c2n1 (relative stereo) [US20250051327, Reference CPD0084143]
0.076 | COc1ccc2ncc(Nc3ccc([C@H](N(C)C(=O)[C@@H]4CNC(=O)C4)C(F)(F)F)cc3)c([C@H]3CCOC3)c2n1 (relative stereo) [US20250051327, Reference CPD0084144]
0.242 | COc1ccc2ncc(Nc3ccc([C@H](N(C)C(=O)C4CCS(=O)(=O)CC4)C(F)(F)F)cn3)c(C(C)OC)c2n1 (stereo partly specified) [US20250051327, Reference CPD0019007]
0.182 | COc1ccc2ccc(Nc3ccc([C@H](N(C)C(=O)C4CCS(=O)(=O)CC4)C(F)(F)F)cc3)cc2n1 [US20250051327, Reference CPD0019078]
0.064 | CN(C(=O)C1CCS(=O)(=O)CC1)[C@@H](c1ccc(N2CCC3(CC3)c3c2cnc2cc(Cl)nn32)cc1)C(F)(F)F [US20250051327, Reference CPD0019590]
0.112 | COC[C@@]1(C)CCN(c2ccc([C@H](N(C)C(=O)C3CCS(=O)(=O)CC3)C(F)(F)F)cc2)c2cnc3cc(Cl)nn3c21 [US20250051327, Reference CPD0073139]
0.092 | COC[C@]1(C)CCN(c2ccc([C@H](N(C)C(=O)C3CCS(=O)(=O)CC3)C(F)(F)F)cc2)c2cnc3cc(Cl)nn3c21 [US20250051327, Reference CPD0073140]
0.115 | COC[C@@H]1CCN(c2ccc([C@H](N(C)C(=O)C3CCS(=O)(=O)CC3)C(F)(F)F)cc2)c2cnc3cc(Cl)nn3c21 [US20250051327, Reference CPD0073503]
